Measured values reported in ChEMBL document CHEMBL3885861, “Open TG-GATES”.

Species: Rattus norvegicus
Assay: Open TG-GATES - Regimen: Single
Format: toxicity, organism-based, Sprague-Dawley
Design: regimen Single, gender Male, age 6 weeks
Conditions: in vivo, po, 0 mg/kg, route gavage, dose level Control; for APTT / Bas / Eos / Fbg / Hb / Ht / Lym / MCH / MCHC / MCV / Mono / Neu / PT / Plat / RBC / Ret / WBC: tissue Blood; for KIDNEY_L / KIDNEY_R / KIDNEY_TOTAL: tissue Kidney; for LIVER: tissue Liver; for A/G / ALP / ALT / AST / BUN / CRE / Ca / Cl / DBIL / GLC / IP / K / LDH / Na / PL / RALB / TBIL / TC / TG / TP / gamma-GTP: tissue Plasma

COC1=CC(=O)C[C@@H](C)[C@]12Oc1c(Cl)c(OC)cc(OC)c1C2=O [GRISEOFULVIN]
TERMINAL_BW (3 h): 211.3 g | APTT (3 h): 21.6 s | Bas (3 h): 0% | Eos (3 h): 0.4% | Fbg (3 h): 224.4 mg/dL | Hb (3 h): 13.4 g/dL | Ht (3 h): 39.4% | Lym (3 h): 76% | MCH (3 h): 21.7 pg | MCHC (3 h): 34.1% | MCV (3 h): 63.5 fL | Mono (3 h): 3% | Neu (3 h): 19.6% | PT (3 h): 12.9 s | Plat (3 h): 119.6 x10_4/uL | RBC (3 h): 620.8 x10_4/ul | Ret (3 h): 7.4% | WBC (3 h): 103.5 x10_2/uL | KIDNEY_L (3 h): 1 g | KIDNEY_R (3 h): 1 g | KIDNEY_TOTAL (3 h): 1.9 g | LIVER (3 h): 9.8 g | A/G (3 h): 1.9 | ALP (3 h): 1043.6 IU/L | ALT (3 h): 45.2 IU/L | AST (3 h): 71 IU/L | BUN (3 h): 10.8 mg/dL | CRE (3 h): 0.3 mg/dL | Ca (3 h): 10.8 mg/dL | Cl (3 h): 104.4 meq/L | DBIL (3 h): 0.2 mg/dL | GLC (3 h): 195.4 mg/dL | IP (3 h): 9.3 mg/dL | K (3 h): 4 meq/L | LDH (3 h): 129.8 IU/L | Na (3 h): 141.4 meq/L | PL (3 h): 167.6 mg/dL | RALB (3 h): 3.5 g/dL | TBIL (3 h): 0.2 mg/dL | TC (3 h): 85.8 mg/dL | TG (3 h): 97.4 mg/dL | TP (3 h): 5.4 g/dL | gamma-GTP (3 h): 1.4 IU/L | TERMINAL_BW (6 h): 210.2 g | APTT (6 h): 18.8 s | Bas (6 h): 0% | Eos (6 h): 0.8% | Fbg (6 h): 231.8 mg/dL | Hb (6 h): 13.8 g/dL | Ht (6 h): 41.1% | Lym (6 h): 79.4% | MCH (6 h): 20.9 pg | MCHC (6 h): 33.6% | MCV (6 h): 62.1 fL | Mono (6 h): 3.2% | Neu (6 h): 16% | PT (6 h): 12.7 s | Plat (6 h): 132.8 x10_4/uL | RBC (6 h): 662.4 x10_4/ul | Ret (6 h): 7.1% | WBC (6 h): 107.8 x10_2/uL | KIDNEY_L (6 h): 1 g | KIDNEY_R (6 h): 1 g | KIDNEY_TOTAL (6 h): 1.9 g | LIVER (6 h): 9 g | A/G (6 h): 1.7 | ALP (6 h): 1097.4 IU/L | ALT (6 h): 34.6 IU/L | AST (6 h): 67 IU/L | BUN (6 h): 8.6 mg/dL | CRE (6 h): 0.3 mg/dL | Ca (6 h): 10.7 mg/dL | Cl (6 h): 103.4 meq/L | DBIL (6 h): 0.098 mg/dL | GLC (6 h): 209.6 mg/dL | IP (6 h): 10 mg/dL | K (6 h): 3.9 meq/L | LDH (6 h): 157.4 IU/L | Na (6 h): 141.4 meq/L | PL (6 h): 138.8 mg/dL | RALB (6 h): 3.4 g/dL | TBIL (6 h): 0.2 mg/dL | TC (6 h): 73.4 mg/dL | TG (6 h): 63.2 mg/dL | TP (6 h): 5.4 g/dL | gamma-GTP (6 h): 1.2 IU/L | TERMINAL_BW (9 h): 209.9 g | APTT (9 h): 18.2 s | Bas (9 h): 0% | Eos (9 h): 1% | Fbg (9 h): 226 mg/dL | Hb (9 h): 13.5 g/dL | Ht (9 h): 39.7% | Lym (9 h): 72.6% | MCH (9 h): 21.4 pg | MCHC (9 h): 33.9% | MCV (9 h): 63.1 fL | Mono (9 h): 2.4% | Neu (9 h): 23.8% | PT (9 h): 12.9 s | Plat (9 h): 117.6 x10_4/uL | RBC (9 h): 628.8 x10_4/ul | Ret (9 h): 7.4% | WBC (9 h): 73.2 x10_2/uL | KIDNEY_L (9 h): 0.9 g | KIDNEY_R (9 h): 0.9 g | KIDNEY_TOTAL (9 h): 1.9 g | LIVER (9 h): 8.3 g | A/G (9 h): 1.7 | ALP (9 h): 1130.6 IU/L | ALT (9 h): 32.4 IU/L | AST (9 h): 59.8 IU/L | BUN (9 h): 11 mg/dL | CRE (9 h): 0.4 mg/dL | Ca (9 h): 10.4 mg/dL | Cl (9 h): 103.6 meq/L | DBIL (9 h): 0.078 mg/dL | GLC (9 h): 206 mg/dL | IP (9 h): 10.1 mg/dL | K (9 h): 4 meq/L | LDH (9 h): 100.8 IU/L | Na (9 h): 141.8 meq/L | PL (9 h): 148.2 mg/dL | RALB (9 h): 3.5 g/dL | TBIL (9 h): 0.1 mg/dL | TC (9 h): 79.8 mg/dL | TG (9 h): 41.2 mg/dL | TP (9 h): 5.5 g/dL | gamma-GTP (9 h): 1.2 IU/L | TERMINAL_BW (24 h): 224 g | APTT (24 h): 18.9 s | Bas (24 h): 0% | Eos (24 h): 1% | Fbg (24 h): 214.4 mg/dL | Hb (24 h): 13 g/dL | Ht (24 h): 39.3% | Lym (24 h): 79.2% | MCH (24 h): 21.6 pg | MCHC (24 h): 33% | MCV (24 h): 65.4 fL | Mono (24 h): 3% | Neu (24 h): 16.6% | PT (24 h): 12.8 s | Plat (24 h): 111.8 x10_4/uL | RBC (24 h): 601.4 x10_4/ul | Ret (24 h): 8% | WBC (24 h): 72.9 x10_2/uL | KIDNEY_L (24 h): 1.1 g | KIDNEY_R (24 h): 1 g | KIDNEY_TOTAL (24 h): 2.1 g | LIVER (24 h): 11.1 g | A/G (24 h): 1.7 | ALP (24 h): 884.4 IU/L | ALT (24 h): 37.6 IU/L | AST (24 h): 61.8 IU/L | BUN (24 h): 16 mg/dL | CRE (24 h): 0.4 mg/dL | Ca (24 h): 10.9 mg/dL | Cl (24 h): 104 meq/L | DBIL (24 h): 0.1 mg/dL | GLC (24 h): 208.8 mg/dL | IP (24 h): 7.5 mg/dL | K (24 h): 4.2 meq/L | LDH (24 h): 148.2 IU/L | Na (24 h): 141.4 meq/L | PL (24 h): 149 mg/dL | RALB (24 h): 3.4 g/dL | TBIL (24 h): 0.2 mg/dL | TC (24 h): 78 mg/dL | TG (24 h): 119.8 mg/dL | TP (24 h): 5.4 g/dL | gamma-GTP (24 h): 1.2 IU/L
